Reference: PubChem BioAssay (NCI)
≈ marks a conversion by molar mass, not a printed value.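 Protocol summary: plate cells (96-well), add compound at 5 concentrations, incubate 48 h, interpolate endpoints linearly. The concentration for 50% growth inhibition is given as GI50. The concentration for full growth arrest is given as TGI.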 Where a SMILES comes first, the peptide text is derived from it. [ ]: non-standard residue; d: D form. The star is where a group is joined. hSer = N[CH](CCO)C(=O)O; Boc = CC(C)(C)OC(=O)*; Bn = c1ccc(C*)cc1

What was measured:
Assay in all cases: NCI-60 cell line screen, 48 h
[1] = test system: CAKI-1 renal
[2] = test system: COLO 205 colon
[3] = test system: SK-MEL-2 melanoma
[4] = test system: M14 melanoma
[5] = test system: NCI-H522 lung
[6] = test system: SF-268 CNS
[7] = test system: NCI-H23 lung
[8] = test system: UO-31 renal
[9] = test system: MDA-MB-435
[10] = test system: KM12 colon
[11] = test system: SW-620 colon
[12] = test system: SK-OV-3 ovarian
[13] = test system: HOP-92 NSCLC
[14] = test system: A498 renal
[15] = test system: OVCAR-3 ovarian
[16] = test system: MALME-3M melanoma
[17] = test system: ACHN renal
[18] = test system: HCT-15 colon
[19] = test system: SK-MEL-28 melanoma
[20] = test system: OVCAR-8 ovarian
[21] = test system: TK-10 renal
[22] = test system: SNB-75 CNS
[23] = test system: NCI-H226 lung
[24] = test system: HS 578T breast
[25] = test system: U251 CNS
[26] = test system: SN12C renal
[27] = test system: EKVX NSCLC
[28] = test system: HOP-62 NSCLC
[29] = test system: UACC-62 melanoma
[30] = test system: A549 NSCLC
[31] = test system: IGROV1 ovarian
[32] = test system: OVCAR-5 ovarian
[33] = test system: DU-145 prostate
[34] = test system: SF-295 CNS
[35] = test system: NCI-H460 lung
[36] = test system: K-562 leukemia
[37] = test system: OVCAR-4 ovarian
[38] = test system: CCRF-CEM leukemia
[39] = test system: MDA-MB-231 breast
[40] = test system: T-47D breast
[41] = test system: NCI/ADR-RES ovarian
[42] = test system: PC-3 prostate
[43] = test system: MOLT-4 leukemia
[44] = test system: UACC-257 melanoma
[45] = test system: HT29 colon
[46] = test system: RPMI-8226 leukemia
[47] = test system: 786-0 renal
[48] = test system: LOX IMVI melanoma
[49] = test system: SF-539 CNS
[50] = test system: RXF 393 renal
[51] = test system: HL-60(TB) leukemia
[52] = test system: SNB-19 CNS
[53] = test system: SK-MEL-5 melanoma
[54] = test system: HCC-2998 colon
[55] = test system: MCF7 breast
[56] = test system: SR leukemia
[57] = test system: HCT-116 colon

CCCCCCCCCCCCCCCCNCCC[C@@H](C)[C@H]1CC[C@H]2[C@@H]3[C@H](OCCCN)C[C@@H]4C[C@H](OCCCN)CC[C@]4(C)[C@H]3C[C@H](OCCCN)[C@]12C
GI50 [1]: 1.9 µM | TGI [1]: 4.58 µM | GI50 [2]: 2.52 µM | TGI [2]: 5.13 µM | GI50 [3]: 2.48 µM | TGI [3]: 5.35 µM | GI50 [4]: 2.5 µM | TGI [4]: 5.65 µM | GI50 [5]: 2.25 µM | TGI [5]: 5.36 µM | GI50 [6]: 2.17 µM | TGI [6]: 4.95 µM | GI50 [7]: 2.39 µM | TGI [7]: 5.4 µM | GI50 [8]: 2.53 µM | TGI [8]: 5.21 µM | GI50 [9]: 2.28 µM | TGI [9]: 6.57 µM | GI50 [10]: 2.18 µM | TGI [10]: 5.03 µM | GI50 [11]: 2.18 µM | TGI [11]: 4.94 µM

CC(C)CC(NC(=O)OC(C)(C)C)C(=O)NC(CCOCc1ccccc1)C(N)=O (stereo not drawn) (Boc-Leu-[hSer](Bn)-NH2; configuration not given here)
GI50 [12]: 46.1 µg/mL | GI50 [13]: 21.4 µg/mL (≈ 50.9 µM) | TGI [13]: 57.4 µg/mL

CCCCCCCCCCCCCC[n+]1ccc(C(N)=O)cc1
GI50 [14]: 3.07 µM | TGI [14]: 21.5 µM | GI50 [15]: 1.54 µM | TGI [15]: 5.39 µM | GI50 [12]: 2.33 µM | TGI [12]: 10.9 µM | GI50 [16]: 2.27 µM | TGI [16]: 7.72 µM | GI50 [1]: 3.04 µM | TGI [1]: 15 µM | GI50 [17]: 3.47 µM | TGI [17]: 15.9 µM | GI50 [18]: 7.19 µM | TGI [18]: 49.6 µM | GI50 [2]: 1.27 µM | TGI [2]: 2.69 µM | GI50 [19]: 2.83 µM | TGI [19]: 7.49 µM | GI50 [20]: 1.68 µM | TGI [20]: 4.48 µM | GI50 [21]: 1.18 µM | TGI [21]: 2.79 µM | GI50 [22]: 1.7 µM | TGI [22]: 4.17 µM | GI50 [23]: 1.52 µM | TGI [23]: 4.01 µM | GI50 [5]: 1.61 µM | TGI [5]: 4.68 µM | GI50 [24]: 2.01 µM | TGI [24]: 7.05 µM | GI50 [25]: 0.538 µM | TGI [25]: 1.87 µM | GI50 [26]: 3.2 µM | TGI [26]: 10.6 µM | GI50 [27]: 1.98 µM | TGI [27]: 6.71 µM | GI50 [28]: 1.51 µM | TGI [28]: 3.45 µM | GI50 [29]: 1.9 µM | TGI [29]: 4.65 µM | GI50 [30]: 2.4 µM | TGI [30]: 6.65 µM | GI50 [7]: 2.42 µM | TGI [7]: 15.2 µM | GI50 [31]: 1.05 µM | TGI [31]: 2.91 µM | GI50 [32]: 1.2 µM | TGI [32]: 4.12 µM | GI50 [33]: 2.66 µM | TGI [33]: 10.7 µM | GI50 [34]: 1.76 µM | TGI [34]: 5.06 µM | GI50 [35]: 2.58 µM | TGI [35]: 8.18 µM | GI50 [36]: 2.31 µM | TGI [36]: > 100 µM | GI50 [37]: 3.26 µM | TGI [37]: 18.2 µM | GI50 [38]: 2.52 µM | TGI [38]: > 100 µM | GI50 [39]: 1.85 µM | TGI [39]: 4.6 µM | GI50 [40]: 3.13 µM | TGI [40]: 14 µM | GI50 [8]: 7.65 µM | TGI [8]: 24.3 µM | GI50 [9]: 1.87 µM | TGI [9]: 4.64 µM | GI50 [41]: 19 µM | TGI [41]: 50.2 µM | GI50 [42]: 0.703 µM | TGI [42]: 2.88 µM | GI50 [43]: 2.54 µM | TGI [43]: > 100 µM | GI50 [44]: 2.24 µM | TGI [44]: 6.08 µM | GI50 [45]: 1.11 µM | TGI [45]: 4.13 µM | GI50 [11]: 2.31 µM | TGI [11]: 11.2 µM | GI50 [46]: 0.731 µM | TGI [46]: 3.03 µM

CCSc1nc(=S)n(-c2ccccc2)c(C)c1C(C)=O
TGI [14]: > 100 µM | TGI [15]: > 100 µM | TGI [47]: > 100 µM | TGI [12]: > 100 µM | TGI [16]: > 100 µM | TGI [1]: > 100 µM | TGI [48]: > 100 µM | TGI [13]: > 100 µM | TGI [49]: > 100 µM | TGI [17]: > 100 µM | TGI [50]: > 100 µM | TGI [18]: > 100 µM | TGI [51]: > 100 µM | TGI [2]: > 100 µM | TGI [19]: > 100 µM | TGI [3]: > 100 µM | TGI [20]: > 100 µM | TGI [52]: > 100 µM | TGI [53]: > 100 µM | TGI [4]: > 100 µM | TGI [21]: > 100 µM | TGI [54]: > 100 µM | TGI [22]: > 100 µM | TGI [23]: > 100 µM | TGI [5]: > 100 µM | TGI [24]: > 100 µM | TGI [55]: > 100 µM | TGI [25]: > 100 µM | TGI [26]: > 100 µM | TGI [27]: > 100 µM | TGI [28]: > 100 µM | TGI [6]: > 100 µM | TGI [29]: > 100 µM | TGI [30]: > 100 µM | TGI [7]: > 100 µM | TGI [31]: > 100 µM | TGI [32]: > 100 µM | TGI [33]: > 100 µM | TGI [34]: > 100 µM | TGI [35]: > 100 µM | TGI [36]: > 100 µM | TGI [37]: > 100 µM | TGI [38]: > 100 µM | TGI [39]: > 100 µM | TGI [40]: > 100 µM | TGI [8]: > 100 µM | TGI [9]: > 100 µM | TGI [41]: > 100 µM | TGI [42]: > 100 µM | TGI [43]: > 100 µM | TGI [10]: > 100 µM | TGI [44]: > 100 µM | TGI [56]: > 100 µM | TGI [45]: > 100 µM | TGI [11]: > 100 µM | TGI [57]: > 100 µM | TGI [46]: > 100 µM
